According to PMC9143527, “A Novel Strategy for Regulating mRNA’s Degradation via Interfering the AUF1’s Binding to mRNA” (Molecules, 2022):

Columns and labels:
AUF1 (endogenous, CETSA) = biological target: T1, AUF1 (endogenous, CETSA) (Homo sapiens, UniProt Q14103); assay: CETSA, Western blot; type: cell-based; settings: HepG2, SK-MEL-2, HCT-116 cells; 1 h treatment at 1, 3.5 or 6 uM
T1 construct: gene HNRNPD; endogenous AUF1 in intact cells, detected by Western blot
T1 sequence (Q14103 2-355): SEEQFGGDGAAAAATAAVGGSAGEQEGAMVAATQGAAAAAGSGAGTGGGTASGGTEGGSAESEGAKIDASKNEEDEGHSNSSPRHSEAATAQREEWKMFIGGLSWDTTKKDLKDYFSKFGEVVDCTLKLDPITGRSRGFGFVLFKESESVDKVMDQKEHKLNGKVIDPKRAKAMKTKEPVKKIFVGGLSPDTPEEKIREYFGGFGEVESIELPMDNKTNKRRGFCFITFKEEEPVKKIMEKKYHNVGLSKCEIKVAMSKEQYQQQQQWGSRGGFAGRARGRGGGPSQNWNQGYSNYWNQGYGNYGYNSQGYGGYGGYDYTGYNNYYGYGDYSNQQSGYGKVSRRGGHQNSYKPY

p37AUF1 (AUF1, hnRNP D) [1] = biological target: T2, p37AUF1 (AUF1, hnRNP D) (Homo sapiens, UniProt Q14103); assay: REMSA, inhibition of AUF1-RNA complex formation; type: binding; settings: 750 nM AUF1, 250 nM FAM-labelled TNF ARE RNA; 10 mM Tris-HCl pH 8.0, 50 mM KCl, 2 mM DTT, 0.5 mM EDTA; on ice
T2 construct: gene HNRNPD; recombinant purified p37 isoform; expression details and tags only in supplement
T2 sequence (Q14103 2-287 isoform Q14103-4): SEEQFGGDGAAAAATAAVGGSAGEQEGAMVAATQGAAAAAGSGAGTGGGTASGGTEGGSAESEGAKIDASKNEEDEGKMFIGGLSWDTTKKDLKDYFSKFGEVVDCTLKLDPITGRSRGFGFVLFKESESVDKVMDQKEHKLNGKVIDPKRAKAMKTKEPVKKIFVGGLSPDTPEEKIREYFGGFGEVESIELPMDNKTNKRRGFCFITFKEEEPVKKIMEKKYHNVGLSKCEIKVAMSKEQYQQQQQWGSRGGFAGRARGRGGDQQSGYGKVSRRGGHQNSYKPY

p37AUF1 (AUF1, hnRNP D) [2] = biological target: T2, p37AUF1 (AUF1, hnRNP D); assay: SPR (Biacore 8K, CM5 chip, amine coupling); type: binding; settings: 20 mM PB pH 7.4 at immobilization; 5% DMSO; compound at 0-80 uM

SMILES: Nc1nc(Nc2ccc(S(N)(=O)=O)cc2)nn1C(=O)c1c(F)cccc1F [JNJ-7706621]
- Tm (AUF1 (endogenous, CETSA)): The melting temperature fitted from the curve in each cell decreased when treated with JNJ-7706621
- REMSA, inhibition of AUF1-RNA complex formation (p37AUF1 (AUF1, hnRNP D) [1]): After adding increasing JNJ-7706621, the bands representing RNA-AUF1 complex weakened
- SPR (Biacore 8K, CM5 chip, amine coupling) (p37AUF1 (AUF1, hnRNP D) [2]): only one compound, JNJ-7706621, showed a typical binding curve shape
